Measured values: patent publication US20090029391A1, “REAGENTS AND METHODS FOR THE DETERMINATION OF PK/ADME-TOX CHARACTERISTICS OF NEW CHEMICAL ENTITIES AND OF DRUG CANDIDATES” (priority 2007, published 2009)

Columns and labels:
[1] = physchem; conditions: pKa observed
Protocol: (§1) A series of 50 mM buffers of pH 2-12 was then prepared (phosphate [pH 2, 3, 6, 7, 8], acetate [pH 4 and 5] and borate [pH 9, 10, 11, 12]), which were further diluted 5-fold with the gold colloid solution. The final pH of the 10 mM buffered colloid so obtained was then recorded. Drug solutions (10 μl, 100 mM in DMSO) were then pipeted in 1 mL of the buffered colloid and the mixture was vortex-mixed. After 30 minutes of incubation, the solutions were pipeted in 96-well polystyrene plates and the O.D. at 620 nm and 525 nm were recorded. The ratio O.D. 620 nm/O.D. 525 nm was calculated. This ratio relates to the agglutination of the colloid (i.e., the higher the ratio, the higher the agglutination). Typically, the ionization of a molecule creates charge(s) that may facilitate the agglutination of the colloid. Thus, titering a molecule with buffered gold colloids over a range of pHs can allow one to determine the ionization constant from the interpolated mid-point of the sigmoid curve drawn from agglutinated to unagglutinated colloid as a function of pH.

[2] = Williams and Lemke 2002; (1), (2) number the two pKa of doxycycline; cited from earlier work
[3] = pKa by colloidal gold pH titration (ratio O.D. 620 nm/525 nm); conditions: colloidal gold pH titration of 1 mM drugs, 1% DMSO, (2) number the two pKa of doxycycline; for pKa: buffered gold colloid (gold nanoparticle solution), pKa observed
Protocol: as §1

[4] = molecular target: human serum albumin (Homo sapiens, UniProt P02768); conditions: literature (Westphal 1986); cited from earlier work
[5] = literature (Goodman and Gillman 1996); cited from earlier work
[6] = Volume of distribution in humans; conditions: human
[7] = Redox potential with PANI-COOH conductive polymer (O.D. 450 nm); assay type: physicochemical; conditions: 100 μM drug, PANI-COOH at pH 4, 10 minutes room temperature; inferred from 450 nm signal
Protocol: The redox potential of known drugs were assayed. The known drug at a given final concentration (100 μM) was introduced in a buffered solution of a conductive polymer (poly[aniline-2-carboxylic acid], PANI-COOH) at pH 4. The solution was mixed and incubated at room temperature (10 minutes). The optical density was read at 450 nm. A sample blank containing the drug and phtalate buffer was prepared, incubated and read in the same way. The OD 450 nm of the blank solution was subtracted from the OD 450 nm of the conductive polymer reaction mixture. […] A linear relationship was observed between the 450 nm signal and the reduction potential of the known molecules (FIG. 15.), which allowed the inference of the reduction potential of NCEs.
Screening a library of 60 well-known drugs allowed identification of bromocriptine as a relatively strong […] (E=−364 mV), prazosin and chlorpropamide as relatively strong […] (E=747 and 848 mV), which is in agreement with literature data (Wardman P. (1989) Reduction potentials of one-electron couples involving free radicals in aqueous solution. J. Phys. Chem. Ref. Data 18, 1637-1755). Although a reductant drug may exert beneficial therapeutic effects, an oxidant may be toxic. […]

[8] = molecular target: bovine serum albumin (Bos taurus, UniProt P02769); conditions: known drugs of Example 5, described as poor, medium or high binders; cited from earlier work
[9] = system: serum albumin; conditions: literature (Goodman and Gillman 1996); cited from earlier work

Sequence of bovine serum albumin (P02769 25-607): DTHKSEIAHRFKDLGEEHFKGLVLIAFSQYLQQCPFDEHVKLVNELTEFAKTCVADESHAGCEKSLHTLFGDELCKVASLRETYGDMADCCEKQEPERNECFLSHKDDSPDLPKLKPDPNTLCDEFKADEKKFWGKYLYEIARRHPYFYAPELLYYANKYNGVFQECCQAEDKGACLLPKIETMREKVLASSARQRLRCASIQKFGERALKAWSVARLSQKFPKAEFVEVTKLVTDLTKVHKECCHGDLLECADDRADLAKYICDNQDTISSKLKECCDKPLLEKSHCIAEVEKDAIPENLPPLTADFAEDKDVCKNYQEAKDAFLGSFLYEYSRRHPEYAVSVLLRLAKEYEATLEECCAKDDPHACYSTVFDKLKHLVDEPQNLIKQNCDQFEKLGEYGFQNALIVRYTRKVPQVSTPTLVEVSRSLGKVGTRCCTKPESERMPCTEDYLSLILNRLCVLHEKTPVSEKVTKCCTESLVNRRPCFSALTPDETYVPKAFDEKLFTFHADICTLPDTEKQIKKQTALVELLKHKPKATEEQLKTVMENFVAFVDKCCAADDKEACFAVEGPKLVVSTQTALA
Sequence of human serum albumin (P02768 25-609): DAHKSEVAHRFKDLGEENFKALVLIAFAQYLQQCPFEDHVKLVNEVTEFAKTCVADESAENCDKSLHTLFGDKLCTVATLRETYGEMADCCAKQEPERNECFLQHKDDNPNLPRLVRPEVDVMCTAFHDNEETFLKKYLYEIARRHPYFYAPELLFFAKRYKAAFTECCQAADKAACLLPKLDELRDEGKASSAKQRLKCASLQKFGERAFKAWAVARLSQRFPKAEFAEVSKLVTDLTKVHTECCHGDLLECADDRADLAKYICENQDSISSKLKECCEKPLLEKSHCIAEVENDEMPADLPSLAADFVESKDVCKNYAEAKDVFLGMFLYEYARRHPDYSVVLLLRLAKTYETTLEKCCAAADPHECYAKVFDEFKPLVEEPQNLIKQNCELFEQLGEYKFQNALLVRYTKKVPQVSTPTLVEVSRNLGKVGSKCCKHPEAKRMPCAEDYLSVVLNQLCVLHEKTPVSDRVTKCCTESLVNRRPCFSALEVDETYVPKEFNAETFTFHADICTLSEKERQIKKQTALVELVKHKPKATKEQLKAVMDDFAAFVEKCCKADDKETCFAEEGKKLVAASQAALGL

`CCOc1ccc2ccccc2c1C(=O)N[C@@H]1C(=O)N2[C@@H]1SC(C)(C)[C@@H]2C(=O)O` [Nafcillin] gave a pKa [1] of 3.

In the case of `Nc1ccc(S(=O)(=O)c2ccc(N)cc2)cc1` [Dapsone], the pKa from reference [2] is listed as 2.4 and the pKa [3] is listed as 3.9.

In the case of `C=C[C@H]1C[N@@]2CC[C@H]1C[C@@H]2[C@@H](O)c1ccnc2ccc(OC)cc12` [Quinidine], the pKa [3] is reported as 7.4.

In the case of `C[C@H]1O[C@@H](O[C@H]2[C@@H](O)C[C@H](O[C@H]3[C@@H](O)C[C@H](O[C@H]4CC[C@@]5(C)[C@H](CC[C@@H]6[C@@H]5C[C@@H](O)[C@]5(C)[C@@H](C7=CC(=O)OC7)CC[C@]65O)C4)O[C@@H]3C)O[C@@H]2C)C[C@H](O)[C@@H]1O` [digoxin, Digoxin], the “apparent affinity for human serum albumin determined by dialysis” value [4] is listed as 1.85.10^5 liters per mole.

In the case of `Cn1c(=O)c2[nH]cnc2n(C)c1=O` [theophylline], the “volume of distribution observed experimentally” value [5] is listed as 0.50±0.16 liters per Kg and the Vd [6] is listed as 0.551 L/kg.

In the case of `COc1cc2nc(N3CCN(C(=O)c4ccco4)CC3)nc(N)c2cc1OC` [prazosin], the “reduction potential E” value [7] is reported as 747 mV.

In the case of `CC(=O)Oc1ccccc1C(=O)O` [Aspirin, Acetylsalicylic acid], the “binder class to the protein (bovine serum albumin)” value (“binder class to the protein” below) [8] is listed as “poor binders”.

For `CN(C)CCC(c1ccc(Cl)cc1)c1ccccn1` (stereo not shown) [Chlorpheniramine], the “binder class to the protein” value [8] is listed as “medium binders”.

For `CC[C@H]1OC(=O)[C@H](C)[C@@H](O[C@H]2C[C@@](C)(OC)[C@@H](O)[C@H](C)O2)[C@H](C)[C@@H](O[C@@H]2O[C@H](C)C[C@H](N(C)C)[C@H]2O)[C@](C)(O)C[C@@H](C)C(=O)[C@H](C)[C@@H](O)[C@]1(C)O` [Erythromycine, Erythromycin], the “binder class to the protein” value [8] is listed as “medium binders” and the pKa [3] is listed as 6.9.

For `CCCNC(=O)NS(=O)(=O)c1ccc(Cl)cc1` [chlorpropamide], the “reduction potential E” value [7] was 848 mV.

In the case of `C=CC1=C(C)/C(=C/c2[nH]c(Cc3[nH]c(/C=C4\NC(=O)C(C)=C4C=C)c(C)c3CCC(=O)O)c(CCC(=O)O)c2C)NC1=O` [bilirubin], the “bound by serum albumin / by the protein in plasma” value [9] is listed as ~100%.

For `CC(=O)Nc1ccc(O)cc1` [Paracetamol], the pKa from reference [2] is listed as 9.4 and the pKa observed [3] is listed as 9.5.
